Converted amounts (≈) assume the structure as drawn. The source made the active and inactive calls. The calls are words filed in the database; no cut-off is given here.
Columns and labels:
Enterococcus faecalis = assay: Antibacterial activity against Enterococcus faecalis MTCC 3382 after 24 hr by disk diffusion method; format: functional; settings: for MIC: Enterococcus faecalis, MTCC 3382, 24 h
Mucor fuscus = assay: Antifungal activity against Mucor fuscus after 3 to 4 days by serial dilution method; format: functional; settings: for MIC: Mucor fuscus
Escherichia coli [1] = assay: Antibacterial activity against Escherichia coli MTCC 1089 after 24 hr by disk diffusion method; format: functional; settings: for MIC: Escherichia coli, MTCC 1089, 24 h
Escherichia coli [2] = assay: Induction of Escherichia coli MTCC 1089 DNA cleavage at 50 ug after 2 hr by agarose gel electrophoresis
Pseudomonas aeruginosa = assay: Antibacterial activity against Pseudomonas aeruginosa MTCC 1034 after 24 hr by disk diffusion method; format: functional; settings: for MIC: Pseudomonas aeruginosa, MTCC 1034, 24 h
Aspergillus niger [3] = assay: Antifungal activity against Aspergillus niger after 3 to 4 days by serial dilution method; format: functional; settings: for MIC: Aspergillus niger
Aspergillus niger [4] = assay: Induction of Aspergillus niger DNA cleavage at 50 ug after 2 hr by agarose gel electrophoresis
Candida albicans = assay: Antifungal activity against Candida albicans after 3 to 4 days by serial dilution method; format: functional; settings: for MIC: Candida albicans
Staphylococcus aureus [5] = assay: Antibacterial activity against Staphylococcus aureus MTCC 3160 after 24 hr by disk diffusion method; format: functional; settings: for MIC: Staphylococcus aureus, MTCC 3160, 24 h
Staphylococcus aureus [6] = assay: Induction of Staphylococcus aureus MTCC 3160 DNA cleavage at 50 ug after 2 hr by agarose gel electrophoresis
Bacillus subtilis = assay: Antibacterial activity against Bacillus subtilis MTCC 297 after 24 hr by disk diffusion method; format: functional; settings: for MIC: Bacillus subtilis, MTCC 297, 24 h
Klebsiella pneumoniae = assay: Antibacterial activity against Klebsiella pneumoniae MTCC 3384 after 24 hr by disk diffusion method; format: functional; settings: for MIC: Klebsiella pneumoniae, MTCC 3384, 24 h
Aspergillus fumigatus = assay: Antifungal activity against Aspergillus fumigatus after 3 to 4 days by serial dilution method; format: functional; settings: for MIC: Aspergillus fumigatus
Fusarium oxysporum = assay: Antifungal activity against Fusarium oxysporum after 3 to 4 days by serial dilution method; format: functional; settings: for MIC: Fusarium oxysporum
Penicillium chrysogenum = assay: Antifungal activity against Penicillium chrysogenum after 3 to 4 days by serial dilution method; format: functional; settings: for MIC: Penicillium chrysogenum

SMILES	inhibition zone (IZ) (Enterococcus faecalis) [mm]	MIC (Enterococcus faecalis) [µg/mL]	inhibition zone (IZ) (Mucor fuscus) [mm]	MIC (Mucor fuscus) [µg/mL]	MIC (Escherichia coli [1]) [µg/mL]	inhibition zone (IZ) (Pseudomonas aeruginosa) [mm]	inhibition zone (IZ) (Aspergillus niger [3]) [mm]	MIC (Aspergillus niger [3]) [µg/mL]	inhibition zone (IZ) (Candida albicans) [mm]	MIC (Candida albicans) [µg/mL]	inhibition zone (IZ) (Staphylococcus aureus [5]) [mm]	inhibition zone (IZ) (Bacillus subtilis) [mm]	MIC (Bacillus subtilis) [µg/mL]	inhibition zone (IZ) (Klebsiella pneumoniae) [mm]	MIC (Klebsiella pneumoniae) [µg/mL]	inhibition zone (IZ) (Aspergillus fumigatus) [mm]	MIC (Aspergillus fumigatus) [µg/mL]	MIC (Fusarium oxysporum) [µg/mL]	inhibition zone (IZ) (Penicillium chrysogenum) [mm]	MIC (Penicillium chrysogenum) [µg/mL]	other results
Cc1ccc2c(COc3cccc(OCc4cc(=O)oc5cc(C)ccc45)c3)cc(=O)oc2c1	16	12.5 (≈ 27.5 µM)	15	25 (≈ 55 µM)	> 100	14	16	12.5 (≈ 27.5 µM)	8	25 (≈ 55 µM)	12	14	12.5 (≈ 27.5 µM)	13	12.5 (≈ 27.5 µM)	17	12.5 (≈ 27.5 µM)	> 100	15	25 (≈ 55 µM)	Activity (Escherichia coli [2]): inactive; MIC (Pseudomonas aeruginosa): 25 µg/mL (≈ 55 µM); Activity (Aspergillus niger [4]): inactive; MIC (Staphylococcus aureus [5]): 25 µg/mL (≈ 55 µM); Activity (Staphylococcus aureus [6]): inactive
O=C(O)c1cn(C2CC2)c2cc(N3CCNCC3)c(F)cc2c1=O [CIPROFLOXACIN]	23	6.25 (≈ 18.9 µM)			12.5 (≈ 37.7 µM)	25					21	20	6.25 (≈ 18.9 µM)	21	6.25 (≈ 18.9 µM)						inhibition zone (IZ) (Escherichia coli [1]): 18 mm
CCN(CC)c1cccc(OCc2cc(=O)oc3c2ccc2ccccc23)c1	14	12.5 (≈ 33.5 µM)	13	25 (≈ 66.9 µM)	25 (≈ 66.9 µM)	19	17	12.5 (≈ 33.5 µM)	14	12.5 (≈ 33.5 µM)	14	11	25 (≈ 66.9 µM)	16	12.5 (≈ 33.5 µM)	15	12.5 (≈ 33.5 µM)	25 (≈ 66.9 µM)	17	12.5 (≈ 33.5 µM)	inhibition zone (IZ) (Escherichia coli [1]): 13 mm; Activity (Escherichia coli [2]): inactive; MIC (Pseudomonas aeruginosa): 6.25 µg/mL (≈ 16.7 µM); Activity (Aspergillus niger [4]): inactive; MIC (Staphylococcus aureus [5]): 12.5 µg/mL (≈ 33.5 µM); Activity (Staphylococcus aureus [6]): inactive; inhibition zone (IZ) (Fusarium oxysporum): 13 mm
Cc1ccc2oc(=O)cc(COc3cccc(O)c3)c2c1	15	12.5 (≈ 44.3 µM)	14	25 (≈ 88.6 µM)	50 (≈ 177 µM)	14	19	6.25 (≈ 22.1 µM)	10	25 (≈ 88.6 µM)	13	15	12.5 (≈ 44.3 µM)	13	12.5 (≈ 44.3 µM)	16	12.5 (≈ 44.3 µM)	50 (≈ 177 µM)	18	12.5 (≈ 44.3 µM)	inhibition zone (IZ) (Escherichia coli [1]): 8 mm; Activity (Escherichia coli [2]): inactive; MIC (Pseudomonas aeruginosa): 25 µg/mL (≈ 88.6 µM); Activity (Aspergillus niger [4]): inactive; MIC (Staphylococcus aureus [5]): 12.5 µg/mL (≈ 44.3 µM); Activity (Staphylococcus aureus [6]): inactive; inhibition zone (IZ) (Fusarium oxysporum): 8 mm
O=c1cc(COc2cccc(OCc3cc(=O)oc4ccc(Br)cc34)c2)c2cc(Br)ccc2o1	19	6.25 (≈ 10.7 µM)	18	12.5 (≈ 21.4 µM)	12.5 (≈ 21.4 µM)	21	19	6.25 (≈ 10.7 µM)	17	6.25 (≈ 10.7 µM)	17	16	6.25 (≈ 10.7 µM)	17	6.25 (≈ 10.7 µM)	18	12.5 (≈ 21.4 µM)	25 (≈ 42.8 µM)	18	12.5 (≈ 21.4 µM)	inhibition zone (IZ) (Escherichia coli [1]): 14 mm; Activity (Escherichia coli [2]): Active; MIC (Pseudomonas aeruginosa): 6.25 µg/mL (≈ 10.7 µM); Activity (Aspergillus niger [4]): Active; MIC (Staphylococcus aureus [5]): 6.25 µg/mL (≈ 10.7 µM); Activity (Staphylococcus aureus [6]): Active; inhibition zone (IZ) (Fusarium oxysporum): 13 mm
O=c1cc(COc2cccc(OCc3cc(=O)oc4ccc5ccccc5c34)c2)c2c(ccc3ccccc32)o1	11	25 (≈ 47.5 µM)	15	25 (≈ 47.5 µM)	25 (≈ 47.5 µM)	17	16	12.5 (≈ 23.7 µM)	13	12.5 (≈ 23.7 µM)	12	12	25 (≈ 47.5 µM)	14	12.5 (≈ 23.7 µM)	15	12.5 (≈ 23.7 µM)	25 (≈ 47.5 µM)	15	25 (≈ 47.5 µM)	inhibition zone (IZ) (Escherichia coli [1]): 11 mm; Activity (Escherichia coli [2]): inactive; MIC (Pseudomonas aeruginosa): 12.5 µg/mL (≈ 23.7 µM); Activity (Aspergillus niger [4]): inactive; MIC (Staphylococcus aureus [5]): 25 µg/mL (≈ 47.5 µM); Activity (Staphylococcus aureus [6]): inactive; inhibition zone (IZ) (Fusarium oxysporum): 13 mm
CCN(CC)c1cccc(OCc2cc(=O)oc3cc(C)ccc23)c1	15	6.25 (≈ 18.5 µM)	16	12.5 (≈ 37 µM)	50 (≈ 148 µM)	16	18	12.5 (≈ 37 µM)	8	25 (≈ 74.1 µM)	16	13	12.5 (≈ 37 µM)	14	12.5 (≈ 37 µM)	15	12.5 (≈ 37 µM)	50 (≈ 148 µM)	18	12.5 (≈ 37 µM)	inhibition zone (IZ) (Escherichia coli [1]): 9 mm; Activity (Escherichia coli [2]): inactive; MIC (Pseudomonas aeruginosa): 12.5 µg/mL (≈ 37 µM); Activity (Aspergillus niger [4]): inactive; MIC (Staphylococcus aureus [5]): 12.5 µg/mL (≈ 37 µM); Activity (Staphylococcus aureus [6]): inactive; inhibition zone (IZ) (Fusarium oxysporum): 7 mm
CC(=O)Nc1cccc(OCc2cc(=O)oc3ccc(C)cc23)c1	12	25 (≈ 77.3 µM)	15	25 (≈ 77.3 µM)	25 (≈ 77.3 µM)	16	20	6.25 (≈ 19.3 µM)	9	25 (≈ 77.3 µM)	14	15	12.5 (≈ 38.7 µM)	12	12.5 (≈ 38.7 µM)	17	12.5 (≈ 38.7 µM)	50 (≈ 155 µM)	19	6.25 (≈ 19.3 µM)	inhibition zone (IZ) (Escherichia coli [1]): 11 mm; Activity (Escherichia coli [2]): inactive; MIC (Pseudomonas aeruginosa): 12.5 µg/mL (≈ 38.7 µM); Activity (Aspergillus niger [4]): inactive; MIC (Staphylococcus aureus [5]): 12.5 µg/mL (≈ 38.7 µM); Activity (Staphylococcus aureus [6]): inactive; inhibition zone (IZ) (Fusarium oxysporum): 10 mm
OC(Cn1cncn1)(Cn1cncn1)c1ccc(F)cc1F [FLUCONAZOLE]			22	6.25 (≈ 20.4 µM)			24	6.25 (≈ 20.4 µM)	20	6.25 (≈ 20.4 µM)						22	6.25 (≈ 20.4 µM)	12.5 (≈ 40.8 µM)	23	6.25 (≈ 20.4 µM)	inhibition zone (IZ) (Fusarium oxysporum): 17 mm
